This note sets out measurements from patent US20260103479A1, “PRODRUGS OF OPICAPONE” (BIAL- PORTELA & CA, S.A., priority 2022, published 2026).

Like-named read-outs stand apart in the source and are kept apart here.

Series [1] is described as follows: Stability in buffer at pH 1.2, 4.5 and 6.8. The format is physicochemical. Conditions: 2500 ng/mL, 37° C.; for stability in buffer at pH 1.2 / stability in buffer at pH 4.5 / stability in buffer at pH 6.8: 4 hours. As to the method:
The stability of 2500 ng/mL of compounds 1 and 4 was assessed at different pH values of 1.2, 4.5 and 6.8 over 4 hours at 37° C. • Buffer solutions were prepared as follows: • Buffer solution pH 1.2: • To prepare 1L: • 3.73 g potassium chloride • 7 mL HCl37% • Add purified water • Check/Adjust pH to 1.20±0.05 (using solutions: HCl 1M and/or NaOH 1M) • Buffer solution pH 4.5 • To prepare 1L: • 2.99 g sodium acetate trihydrate • 14 mL acetic acid 2M • Add purified water • Check/Adjust pH to 4.50±0.05 (using solutions: acetic acid 2M and/or NaOH 1M) • Buffer solution pH 6.8 • To prepare 1L: • 6.81 g potassium dihydrogen phosphate • 22 mL NaOH 1M • Add purified water • Check/Adjust pH to 6.80±0.05 (using solutions: HCl 1M and/or NaOH 1M)

For another series, the target named is T1, erythrocyte S-COMT (Rattus norvegicus, UniProt P22734).
T1 construct: from tissue; host or cells: erythrocytes of male Wistar rats (haemolysate supernatant, 20 000 x g)
T1 sequence (P22734 1-221 isoform P22734-2): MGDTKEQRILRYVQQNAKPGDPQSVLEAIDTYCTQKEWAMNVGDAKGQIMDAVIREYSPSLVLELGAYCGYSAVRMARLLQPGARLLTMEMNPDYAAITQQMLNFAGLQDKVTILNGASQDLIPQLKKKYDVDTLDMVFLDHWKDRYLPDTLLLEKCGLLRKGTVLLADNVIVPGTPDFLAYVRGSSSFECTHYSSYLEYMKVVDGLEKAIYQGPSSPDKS
Nature of the series: Subcutaneous pharmacodynamics: erythrocyte S-COMT activity (adrenaline to metanephrine). The following applies: sc, s.c. 3 mg/kg. The format is in vivo, male Wistar rats. As to the method:
The pharmacodynamic properties of compounds 1 and 4 compared to oral administered micronized crystalline opicapone were assessed by subcutaneous injection to 4 male Wistar rats (3 mg/kg; DMSO:20% HPBCD (1:9)) then measurement of erythrocyte S-COMT activity over time.
During the studies, blood was collected at different time points, from tail vein, spun at 1500×g in a refrigerated centrifuge (4° C.) for 15 min, and the plasma and erythrocytes obtained were stored at −80° C. until further analysis. The plasma samples collected were analysed for compound 1, compound 4 and opicapone exposure, as previously described
Erythrocyte S-COMT activity was evaluated by the ability to methylate adrenaline to metanephrine. Aliquots of erythrocytes were haemolyzed by addition of 4 volumes of ice-cold ultrapure water and homogenization in a bead mill homogenizer, using glass beads, followed by 10 minutes incubation on wet ice. After centrifugation (20 000×g, 20 minutes, 4° C.), the supernatant containing S-COMT was quantified for total protein using Bradford assay. Supernatants were diluted with water to 4 mg total protein per ml. 100 μL of these diluted supernatants were then pre-incubated in a 96-well plate for 20 min with 80 μL of phosphate buffer (10 mM, pH 7.8); thereafter, the reaction mixture was incubated for 10 min with adrenaline (10 mM; 20 μL) in the presence of a saturating concentration of S-adenosyl-L-methionine, the methyl donor (500 μM). The incubation medium also contained pargyline (100 μM), MgCl2, (100 μM) and EGTA (1 mM). The pre-incubation and incubation were carried out at 37° C., under conditions of light protection with continuous shaking and without oxygenation. At the end of the incubation period the plate was transferred to ice and the reaction was stopped by the addition of 15 μL of glacial acetic acid. 60 μL of each sample were then transferred to a new 96-well containing 400 μL of 0.1% formic acid, followed by plate centrifugation (2000×g, 5 minutes 4° C.). The supernatants were used for the quantification of metanephrine by LC-MS/MS.

A short description of series [2]: Intravenous pharmacokinetics in rats. The format is in vivo, male Wistar rats. The following applies: i.v. 1 mg/kg; for opicapone pharmacokinetic profile after intravenous prodrug (comparison): FIG. 4b; for AUC(0-t): read-out: AUClast of prodrug; for half-life: read-out: t1/2 of prodrug (converted); for Vd / clearance: plasma; for clearance: read-out: CL of prodrug (converted). As for the experimental part: The pharmacokinetic properties of compounds 1 and 4 compared to micronized crystalline opicapone were assessed by intravenous injection to 3 male Wistar rats (1 mg/kg; DMSO:20% HPBCD (1:9).
During the studies, blood was collected at different time points, from jugular vein, spun at 1500×g in a refrigerated centrifuge (4° C.) for 15 min, and the plasma obtained was stored at −80° C. until further analysis. The plasma samples collected were analysed for compound 1, compound 4 and opicapone exposure. The bioanalysis involved the use of LC-MS/MS after plasma precipitation.

Series [3] in a line: Oral pharmacokinetics in rats. The format is in vivo, male Wistar rats. Conditions: p.o. 3 mg/kg; for Cmax / Tmax / AUC(0-t): male, Wistar, po, rat plasma, analyte prodrug; for AUC(0-t): read-out: AUClast of prodrug; for opicapone pharmacokinetic profile after oral prodrug (comparison): FIG. 3b. As to the method:
The pharmacokinetic properties of compounds 1 and 4 compared to micronized crystalline opicapone were assessed by oral administrations to 4 male Wistar rats (3 mg/kg; 0.2% HPMC).
During the studies, blood was collected at different time points, from tail vein, spun at 1500×g in a refrigerated centrifuge (4° C.) for 15 min, and the plasma obtained was stored at −80° C. until further analysis. The plasma samples collected were analysed for compound 1, compound 4 and opicapone exposure. The bioanalysis involved the use of LC-MS/MS after plasma precipitation.

Where [4] appears, read: 2 h after dosing, read-out: maximal inhibition of COMT activity in erythrocytes.
Setting [5] is: at least until 8 h post-dosing, read-out: inhibition of COMT maintained.
The mark [6] stands for this setting: male, Wistar, iv, rat plasma, analyte prodrug.
The mark [7] stands for this setting: male, Wistar, iv, rat, analyte prodrug.

As a reminder, the inhibition is the share of the control response that was lost under treatment. As usually defined, the Vd is the apparent volume that relates the amount in the body to the concentration in plasma or blood. One may read the Cmax as the highest concentration seen after dosing. As usually defined, the Tmax is the time from dosing to the highest level. `Cc1c(Cl)c(C)[n+]([O-])c(Cl)c1-c1noc(-c2cc(OP(=O)(O)O)c(O)c([N+](=O)[O-])c2)n1` [Compound 1, 2,5-dichloro-3-(5-(4-hydroxy-3-nitro-5-(phosphonooxy)phenyl)-1,2,4-oxadiazol-3-yl)-4,6-dimethylpyridine 1-oxide]: in series [1], the “solubility in buffer at pH 1.2” value is recorded as “not immediately soluble”, the “stability in buffer at pH 1.2” value is listed as “stable”, the “stability in buffer at pH 4.5” value is listed as “stable” and the “stability in buffer at pH 6.8” value is recorded as “stable”. Also, the inhibition at 3 mg/kg on erythrocyte S-COMT (setting [4]) was found to be 96%. For the same molecule, on erythrocyte S-COMT (setting [5]), the inhibition at 3 mg/kg is greater than 80%. The “intravenous pharmacokinetic properties of the prodrug (comparison)” value in series [2] (rat, FIG. 4a) is listed as “improved pharmacokinetic properties compared to compound 4”. In series [2] (rat), the “opicapone pharmacokinetic profile after intravenous prodrug (comparison)” value is on record as “comparable to opicapone itself”. In addition, in series [2] (setting [6]), the C0 is 29400 ng/mL, the AUC(0-t) was 30700 ng·h/mL and the half-life was 156 min. Besides, in series [2] (setting [7]), the Vd was 0.123 L/kg and the clearance is 0.643 mL/min/kg. For the same molecule, in series [3], the Cmax stood at 146 ng/mL, the time to peak (Tmax) is 30 min and the AUC(0-t) was found to be 417 ng·h/mL. Further, the “oral pharmacokinetic properties of the prodrug (comparison)” value in series [3] (rat, FIG. 3a) is on record as “improved pharmacokinetic properties compared to compound 4”. For the same molecule, in series [3] (rat), the “opicapone pharmacokinetic profile after oral prodrug (comparison)” value is given as “comparable to opicapone itself”.
For the molecule `Cc1c(Cl)c(C)[n+]([O-])c(Cl)c1-c1noc(-c2cc(OCOP(=O)(O)O)c(O)c([N+](=O)[O-])c2)n1` [Compound 4, 2,5-dichloro-3-(5-(4-hydroxy-3-nitro-5-((phosphonooxy)methoxy)phenyl)-1,2,4-oxadiazol-3-yl)-4,6-dimethylpyridine 1-oxide], in series [1], the “stability in buffer at pH 1.2” value is reported as “stable”, the “stability in buffer at pH 4.5” value is “stable” and the “stability in buffer at pH 6.8” value was “stable”. The inhibition at 3 mg/kg at erythrocyte S-COMT (setting [4]) stood at 94%. For the same molecule, the inhibition at 3 mg/kg at erythrocyte S-COMT (setting [5]) was greater than 80%. The “opicapone pharmacokinetic profile after intravenous prodrug (comparison)” value in series [2] (rat) was “worse intravenous pharmacokinetic parameters”. In series [2] (setting [6]), the C0 stood at 21900 ng/mL, the time to peak (Tmax) worked out at 4.8 min, the AUC(0-t) stood at 4990 ng·h/mL and the half-life is 174 min. In series [2] (setting [7]), the Vd came to 1.99 L/kg and the clearance was 3.58 mL/min/kg. In addition, in series [3], the Cmax was 32.5 ng/mL, the Tmax came to 30 min and the AUC(0-t) amounted to 26.5 ng·h/mL. For the same molecule, in series [3] (rat), the “opicapone pharmacokinetic profile after oral prodrug (comparison)” value is “worse oral pharmacokinetic parameters”.
